Laboratory results reported in ChEMBL document CHEMBL4321845, “Discovery and Characterization of Potent Pan-Genotypic HCV NS5A Inhibitors Containing Novel Tricyclic Central Core Leading to Clinical Candidate” (J Med Chem, 2019).

Columns and labels:
[1] = target: T1, Nonstructural protein 5A (Hepatitis C virus) (UniProt Q5L478); assay: Inhibition of NS5A in HCV genotype 1b infected in human HuH7.5/Con1/SG-Neo(I)-hRluc2aUb cells assessed as inhibition of replicon levels at 0.1 uM incubated for 72 hrs by luciferase reporter gene assay relative to control; details: Hepatitis C virus subtype 1b
T1 sequence (whole entry): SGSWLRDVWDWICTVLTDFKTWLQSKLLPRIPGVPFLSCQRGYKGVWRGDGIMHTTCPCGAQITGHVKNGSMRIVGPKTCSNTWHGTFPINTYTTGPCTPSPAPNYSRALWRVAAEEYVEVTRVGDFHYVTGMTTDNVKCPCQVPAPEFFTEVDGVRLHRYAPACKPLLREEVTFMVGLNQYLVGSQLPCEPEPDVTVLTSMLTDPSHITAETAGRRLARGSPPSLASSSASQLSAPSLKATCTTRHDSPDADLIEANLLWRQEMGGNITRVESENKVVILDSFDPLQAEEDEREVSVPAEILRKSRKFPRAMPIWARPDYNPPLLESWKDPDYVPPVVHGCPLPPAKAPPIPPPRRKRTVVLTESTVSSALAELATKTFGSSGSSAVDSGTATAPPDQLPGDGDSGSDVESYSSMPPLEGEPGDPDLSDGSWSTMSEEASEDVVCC

[2] = target: T1, Nonstructural protein 5A (Hepatitis C virus); assay: Inhibition of NS5A in HCV genotype 2a infected in human Huh7.5/J6/JFH1/EMCVIRES/hRlucNeo cells assessed as inhibition of replicon levels at 1 uM incubated for 72 hrs by luciferase reporter gene assay; details: Hepatitis C virus subtype 2a
[3] = Drug metabolism in rat liver microsomes assessed as metabolic rate at 1 uM preincubated for 5 mins before NADPH addition and measured up to 30 mins by LC-MS/MS analysis; type: ADME, Microsome; details: 0.5 h
[4] = Drug metabolism in human liver microsomes assessed as metabolic rate at 1 uM preincubated for 5 mins before NADPH addition and measured up to 30 mins by LC-MS/MS analysis; type: ADME, Microsome; details: 0.5 h
CYP2D6 = CYP2D6 (Homo sapiens, UniProt P10635); assay: Inhibition of CYP2D6 in pooled human liver microsomes at 10 uM pre-incubated for 5 mins before NADPH addition and measured after 10 mins by UPLC-MS/MS analysis relative to control; type: ADME
CYP2C9 = CYP2C9 (Homo sapiens, UniProt P11712); assay: Inhibition of CYP2C9 in pooled human liver microsomes at 10 uM pre-incubated for 5 mins before NADPH addition and measured after 10 mins by UPLC-MS/MS analysis relative to control; type: ADME
CYP3A4 = CYP3A4 (Homo sapiens, UniProt P08684); assay: Inhibition of CYP3A4 in pooled human liver microsomes at 10 uM pre-incubated for 5 mins before NADPH addition and measured after 10 mins by UPLC-MS/MS analysis relative to control; type: ADME
[5] = Cytotoxicity in human HuH7 cells assessed as inhibition of cell growth at 3 uM incubated for 72 hrs by CCK8 assay relative to control; type: cell-based, Huh-7; details: read-out: GI
[6] = Cytotoxicity in human HepG2 cells assessed as inhibition of cell growth at 3 uM incubated for 72 hrs by CCK8 assay relative to control; type: cell-based; details: read-out: GI
[7] = Cytotoxicity in human HepG2 cells assessed as inhibition of cell growth at 10 uM incubated for 72 hrs by CCK8 assay relative to control; type: cell-based; details: read-out: GI
[8] = Cytotoxicity in human HEK293 cells assessed as inhibition of cell growth at 3 uM incubated for 72 hrs by CCK8 assay relative to control; type: cell-based; details: read-out: GI
[9] = Cytotoxicity in human HEK293 cells assessed as inhibition of cell growth at 10 uM incubated for 72 hrs by CCK8 assay relative to control; type: cell-based; details: read-out: GI
[10] = AUC(last) in rat at 1 mg/kg, iv measured up to 24 hrs by LC-MS/MS analysis; type: ADME, organism-based; design: dose 1 mg/kg, route intravenous, time 0 - last; details: in vivo
[11] = Half life in rat at 1 mg/kg, iv measured up to 24 hrs by LC-MS/MS analysis; type: ADME, organism-based; details: in vivo
[12] = Clearance in rat at 1 mg/kg, iv measured up to 24 hrs by LC-MS/MS analysis; type: ADME, organism-based; details: in vivo
[13] = Volume of distribution at steady state in rat at 1 mg/kg, iv measured up to 24 hrs by LC-MS/MS analysis; type: ADME, organism-based; details: in vivo, read-out: Vdss
[14] = Cmax in rat at 10 mg/kg, po measured up to 24 hrs by LC-MS/MS analysis; type: ADME, organism-based; design: dose 10 mg/kg, route oral; details: in vivo
[15] = AUC (last) in rat at 10 mg/kg, po measured up to 24 hrs by LC-MS/MS analysis; type: ADME, organism-based; design: dose 10 mg/kg, time 0 - last, route oral; details: in vivo
[16] = Oral bioavailability in rat at 10 mg/kg measured up to 24 hrs by LC-MS/MS analysis; type: ADME, organism-based; details: in vivo
[17] = Drug level in liver of Wistar rat at 10 mg/kg, po measured at 4 hrs by LC-MS/MS analysis; type: ADME, organism-based; details: read-out: Drug uptake
[18] = Drug level in plasma of Wistar rat at 10 mg/kg, po measured at 4 hrs by LC-MS/MS analysis; type: ADME, organism-based
[19] = Ratio of dug level in liver to plasma of Wistar rat at 10 mg/kg, po measured at 4 hrs by LC-MS/MS analysis; type: ADME, organism-based
[20] = Drug level in liver of Wistar rat at 10 mg/kg, po measured up to 8 hrs by LC-MS/MS analysis; type: ADME, organism-based; details: in vivo
[21] = Tmax in rat at 10 mg/kg, po measured up to 24 hrs by LC-MS/MS analysis; type: ADME, organism-based; details: in vivo
[22] = Tmax in rat at 30 mg/kg, po measured up to 24 hrs by LC-MS/MS analysis; type: ADME, organism-based; details: in vivo
[23] = Tmax in rat at 100 mg/kg, po measured up to 24 hrs by LC-MS/MS analysis; type: ADME, organism-based; details: in vivo
[24] = Cmax in rat at 30 mg/kg, po measured up to 24 hrs by LC-MS/MS analysis; type: ADME, organism-based; design: dose 30 mg/kg, route oral; details: in vivo
[25] = Cmax in rat at 100 mg/kg, po measured up to 24 hrs by LC-MS/MS analysis; type: ADME, organism-based; design: dose 100 mg/kg, route oral; details: in vivo
[26] = Cmax in beagle dog at 10 mg/kg, po measured up to 24 hrs by LC-MS/MS analysis; type: ADME, organism-based, Canis lupus familiaris; design: dose 10 mg/kg, route oral; details: in vivo
[27] = AUC (last) in rat at 30 mg/kg, po measured up to 24 hrs by LC-MS/MS analysis; type: ADME, organism-based; design: dose 30 mg/kg, time 0 - last, route oral; details: in vivo
[28] = AUC (last) in rat at 100 mg/kg, po measured up to 24 hrs by LC-MS/MS analysis; type: ADME, organism-based; design: dose 100 mg/kg, time 0 - last, route oral; details: in vivo
[29] = AUC (last) in beagle dog at 10 mg/kg, po measured up to 24 hrs by LC-MS/MS analysis; type: ADME, organism-based, Canis lupus familiaris; design: dose 10 mg/kg, time 0 - last, route oral; details: in vivo
[30] = AUC(last) in beagle dog at 1 mg/kg, iv measured up to 24 hrs by LC-MS/MS analysis; type: ADME, organism-based, Canis lupus familiaris; design: dose 1 mg/kg, route intravenous, time 0 - last; details: in vivo
[31] = Half life in beagle dog at 1 mg/kg, iv measured up to 24 hrs by LC-MS/MS analysis; type: ADME, organism-based, Canis lupus familiaris; details: in vivo
[32] = Clearance in beagle dog at 1 mg/kg, iv measured up to 24 hrs by LC-MS/MS analysis; type: ADME, organism-based, Canis lupus familiaris; details: in vivo
[33] = Volume of distribution at steady state in beagle dog at 1 mg/kg, iv measured up to 24 hrs by LC-MS/MS analysis; type: ADME, organism-based, Canis lupus familiaris; details: in vivo, read-out: Vdss
[34] = Oral bioavailability in beagle dog at 10 mg/kg measured up to 24 hrs by LC-MS/MS analysis; type: ADME, organism-based, Canis lupus familiaris; details: in vivo

Sequence of CYP2D6 (P10635 whole entry): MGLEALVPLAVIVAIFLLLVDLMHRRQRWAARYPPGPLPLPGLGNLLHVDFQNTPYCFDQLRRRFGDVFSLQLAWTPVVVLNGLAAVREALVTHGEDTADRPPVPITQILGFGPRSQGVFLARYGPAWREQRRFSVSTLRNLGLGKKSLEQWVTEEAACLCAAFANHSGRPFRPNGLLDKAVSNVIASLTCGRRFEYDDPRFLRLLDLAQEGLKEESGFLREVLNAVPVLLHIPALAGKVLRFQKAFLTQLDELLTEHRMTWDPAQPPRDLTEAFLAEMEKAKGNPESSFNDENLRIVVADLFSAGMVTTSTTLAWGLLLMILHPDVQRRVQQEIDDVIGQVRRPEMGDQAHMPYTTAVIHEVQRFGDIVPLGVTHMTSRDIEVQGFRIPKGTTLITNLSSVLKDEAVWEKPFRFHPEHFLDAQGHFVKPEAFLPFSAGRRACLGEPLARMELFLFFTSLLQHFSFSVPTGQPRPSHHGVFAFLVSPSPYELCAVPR
Sequence of CYP3A4 (P08684 whole entry): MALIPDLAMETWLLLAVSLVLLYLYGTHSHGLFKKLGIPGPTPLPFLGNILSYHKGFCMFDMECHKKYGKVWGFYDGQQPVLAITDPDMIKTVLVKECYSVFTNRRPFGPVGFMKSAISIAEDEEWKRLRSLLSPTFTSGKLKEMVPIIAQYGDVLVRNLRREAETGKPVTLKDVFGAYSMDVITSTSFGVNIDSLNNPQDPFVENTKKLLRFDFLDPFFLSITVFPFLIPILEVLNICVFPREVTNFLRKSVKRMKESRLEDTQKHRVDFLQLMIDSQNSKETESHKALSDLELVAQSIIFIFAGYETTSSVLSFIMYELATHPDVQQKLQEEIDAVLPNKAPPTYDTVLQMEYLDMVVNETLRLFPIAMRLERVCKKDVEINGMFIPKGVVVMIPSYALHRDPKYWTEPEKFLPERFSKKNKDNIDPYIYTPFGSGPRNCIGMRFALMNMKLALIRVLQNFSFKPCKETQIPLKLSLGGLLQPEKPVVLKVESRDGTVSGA
Sequence of CYP2C9 (P11712 whole entry): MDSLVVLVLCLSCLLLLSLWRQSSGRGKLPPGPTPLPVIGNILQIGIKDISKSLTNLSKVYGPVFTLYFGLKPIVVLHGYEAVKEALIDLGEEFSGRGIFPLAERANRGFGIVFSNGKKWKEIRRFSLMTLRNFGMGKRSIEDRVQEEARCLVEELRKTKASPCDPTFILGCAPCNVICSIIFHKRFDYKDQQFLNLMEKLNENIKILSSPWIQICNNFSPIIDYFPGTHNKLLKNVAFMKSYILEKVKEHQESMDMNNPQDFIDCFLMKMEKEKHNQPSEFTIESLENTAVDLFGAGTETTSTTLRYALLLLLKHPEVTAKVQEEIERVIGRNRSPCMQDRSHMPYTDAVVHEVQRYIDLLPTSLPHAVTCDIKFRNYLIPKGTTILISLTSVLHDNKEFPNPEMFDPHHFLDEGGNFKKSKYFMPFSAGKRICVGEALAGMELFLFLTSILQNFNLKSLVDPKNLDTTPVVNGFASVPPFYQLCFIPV

COC(=O)N[C@H](C(=O)N1CCC[C@H]1c1ncc(-c2ccc3c(c2)CC2c4ccc(-c5cnc([C@@H]6CCCN6C(=O)[C@@H](NC(=O)OC)C(C)C)[nH]5)cc4CC32)[nH]1)C(C)C (some centres not stated)
inhibition [1]: 75% | inhibition [2]: 11%

COC(=O)N[C@H](C(=O)N1CCC[C@H]1c1ncc(-c2ccc3c(c2)OCc2cc(-c4cnc([C@@H]5CCCN5C(=O)[C@@H](NC(=O)OC)C(C)C)[nH]4)sc2-3)[nH]1)C(C)C
Drug metabolism [3]: 0.01 nmol/min/mg | Drug metabolism [4]: 0.02 nmol/min/mg | inhibition at 10 min, 10 µM (CYP2D6): 13% | inhibition at 10 min, 10 µM (CYP2C9): 41% | inhibition at 10 min, 10 µM (CYP3A4): 22% | inhibition at 72 h, 3 µM [5]: 3% | inhibition at 72 h, 3 µM [6]: 0% | inhibition at 72 h, 10 µM [7]: 16% | inhibition at 72 h, 3 µM [8]: 14% | inhibition at 72 h, 10 µM [9]: 22% | AUC(0-t) at 24 h [10]: 2 µM·h | half-life [11]: 1.9 h | clearance [12]: 10 mL/min/kg | Vd [13]: 1.5 L/kg | Cmax [14]: 300 to 2000 nM | AUC(0-t) at 24 h [15]: 2 to 6 µM·h | bioavailability [16]: 30% | concentration at 4 h [17]: 7900 nM | concentration at 4 h [18]: 1390 nM | Kp at 4 h [19]: 5.5 | Drug uptake [20]: Active | Tmax [21]: 2 to 4 h | Tmax [22]: 4 to 6 h | Tmax [23]: 2 to 6 h | Cmax [24]: 2000 nM | Cmax [25]: 7000 nM | Cmax [26]: 3000 nM | AUC(0-t) at 24 h [27]: 28 µM·h | AUC(0-t) at 24 h [28]: 76 µM·h | AUC(0-t) at 24 h [29]: 40 µM·h | AUC(0-t) at 24 h [30]: 3 µM·h | half-life [31]: 3 h | clearance [32]: 7 mL/min/kg | Vd [33]: 2 L/kg | bioavailability [34]: 100%
